Reference: US20260116868A1 (Arcus Biosciences, Inc., priority 2023, published 2026)

target: T1, Cbl-b (Homo sapiens, UniProt Q13191); experiment: Cbl-b probe displacement HTRF binding assay; conditions: 0.4 nM Cbl-b, 150 nM BODIPY probe
T1 construct: biotin (biotinylated protein)
Procedure, shortened: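 Compound competes with BODIPY probe (150 nM) for biotinylated Cbl-b (0.4 nM) in HEPES/NaCl/Triton/TCEP/BSA buffer; 60 min preincubation, 15 min with probe, room temperature. Tb-streptavidin HTRF read; % displacement vs DMSO and no-protein controls, IC50 from four-parameter fit.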

T1 sequence (Q13191 whole entry, species assumed): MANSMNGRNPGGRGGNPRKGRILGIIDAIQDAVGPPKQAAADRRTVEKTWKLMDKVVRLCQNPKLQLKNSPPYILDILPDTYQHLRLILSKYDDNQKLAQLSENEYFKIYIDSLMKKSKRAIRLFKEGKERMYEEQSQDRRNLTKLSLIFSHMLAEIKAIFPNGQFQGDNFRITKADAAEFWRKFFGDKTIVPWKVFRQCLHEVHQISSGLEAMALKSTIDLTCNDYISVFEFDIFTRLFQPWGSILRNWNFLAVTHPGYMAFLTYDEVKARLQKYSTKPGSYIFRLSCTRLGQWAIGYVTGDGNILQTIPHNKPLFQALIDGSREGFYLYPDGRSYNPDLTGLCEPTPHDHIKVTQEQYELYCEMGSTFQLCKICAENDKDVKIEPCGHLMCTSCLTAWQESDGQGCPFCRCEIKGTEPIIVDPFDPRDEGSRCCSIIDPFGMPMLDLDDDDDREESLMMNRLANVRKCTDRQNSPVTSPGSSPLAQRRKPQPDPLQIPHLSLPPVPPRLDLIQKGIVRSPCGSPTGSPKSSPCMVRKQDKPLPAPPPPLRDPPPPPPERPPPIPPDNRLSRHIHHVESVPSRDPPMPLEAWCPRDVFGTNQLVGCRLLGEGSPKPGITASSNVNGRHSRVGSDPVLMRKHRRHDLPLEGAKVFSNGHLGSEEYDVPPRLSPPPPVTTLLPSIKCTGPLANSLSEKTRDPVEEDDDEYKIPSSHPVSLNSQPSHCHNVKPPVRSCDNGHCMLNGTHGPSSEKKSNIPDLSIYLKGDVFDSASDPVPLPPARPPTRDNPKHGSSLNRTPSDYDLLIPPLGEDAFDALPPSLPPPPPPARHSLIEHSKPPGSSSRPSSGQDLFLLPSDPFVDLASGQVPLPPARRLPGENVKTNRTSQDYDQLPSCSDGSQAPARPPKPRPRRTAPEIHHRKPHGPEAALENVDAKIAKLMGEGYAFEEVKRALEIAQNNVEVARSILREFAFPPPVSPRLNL

IC50, < 100 nM:
CO[C@@H](C)[C@H](C)NCc1cc(C(=O)Nc2cc(-c3ccc(Cl)cc3C(=O)N3CC(F)C3)cc(OC(C)C)n2)c(=O)n(C2CC2)c1 [Example 259], COc1ccc(-c2cc(NC(=O)c3cc(CN[C@@H](C)C4CCC4)cn(C4CC4)c3=O)nc(C3CC3)c2)c(C(=O)N2CC(F)C2)c1 [Example 260], COc1ccc(-c2cc(NC(=O)c3cc(CNC[C@H](C)OC)cn(C4CC4)c3=O)nc(OC(C)C)c2)c(C(=O)N2CC(F)C2)c1 [Example 261], C[C@H](NCc1cc(C(=O)Nc2cc(-c3ccc(OC(F)F)cc3C(=O)N3CC(F)C3)cc(OC3CC3)n2)c(=O)n(C)c1)C1CCC1 [Example 262], CO[C@@H](C)CNCc1cc(C(=O)Nc2cc(-c3ccc(OC(F)F)cc3C(=O)N3CC(F)C3)cc(OC(C)C)n2)c(=O)n(C)c1 [Example 263], CC(C)Oc1cc(-c2ccc(Cl)cc2C(=O)N2CC(F)C2)cc(NC(=O)c2cc(CN[C@@H](C)C3CC3)cn(C3CC3)c2=O)n1 [Example 264], CO[C@@H](C)CNCc1cc(C(=O)Nc2cc(-c3ccc(C#N)cc3C(=O)N3CC(F)C3)cc(OC(C)C)n2)c(=O)n(C)c1 [Example 265], CCOc1cc(-c2ccc(OC(F)F)cc2C(=O)N2CC(F)C2)cc(NC(=O)c2cc(CNC[C@@H]3CCCO3)cn(C3CC3)c2=O)n1 [Example 266], CC(C)CNCc1cc(C(=O)Nc2cc(-c3ccc(OC(F)F)cc3C(=O)N3CC(F)C3)cc(OC(C)C)n2)c(=O)n(C2CC2)c1 [Example 267], CCOc1cc(-c2ccc(OC(F)F)cc2C(=O)N2CC(F)C2)cc(NC(=O)c2cc(CNCC(C)C)cn(C3CC3)c2=O)n1 [Example 268], COc1ccc(-c2cc(NC(=O)c3cc(CN[C@@H](C)[C@H](C)OC)cn(C4CC4)c3=O)nc(C3CC3)c2)c(C(=O)N2CC(F)C2)c1 [Example 269], COc1ccc(-c2cc(NC(=O)c3cc(CNC[C@H](C)OC)cn(C4CC4)c3=O)nc(C3CC3)c2)c(C(=O)N2CC(F)C2)c1 [Example 270], CC(C)Oc1cc(-c2ccc(Cl)cc2C(=O)N2CC(F)C2)cc(NC(=O)c2cc(CNC[C@@H]3CCCO3)cn(C3CC3)c2=O)n1 [Example 271], CC(C)CNCc1cc(C(=O)Nc2cc(-c3ccc(C#N)cc3C(=O)N3CC(F)C3)cc(OC(C)C)n2)c(=O)n(C)c1 [Example 272], CO[C@@H](C)CNCc1cc(C(=O)Nc2cc(-c3ccc(C)cc3C(=O)N3CC(F)(F)C3)cc(C3CC3)n2)c(=O)n(C2CC2)c1 [Example 273], COc1ccc(-c2cc(NC(=O)c3cc(CN[C@@H](C)C4CCC4)cn(C)c3=O)nc(OC(C)C)c2)c(C(=O)N2CC(F)C2)c1 [Example 274], CCOc1cc(-c2ccc(OC(F)F)cc2C(=O)N2CC(F)C2)cc(NC(=O)c2cc(CNC[C@H](C)OC)cn(C)c2=O)n1 [Example 275], COc1ccc(-c2cc(NC(=O)c3cc(CN[C@@H](C)C4CCC4)cn(C4CC4)c3=O)nc(OC(C)C)c2)c(C(=O)N2CC(F)(F)C2)c1 [Example 276], Cc1ccc(-c2cc(NC(=O)c3cc(CN[C@@H](C)C4CCC4)cn(C4CC4)c3=O)nc(OC(C)C)c2)c(C(=O)N2CC(F)C2)c1 [Example 277], CC(C)Nc1cc(-c2ccc(OC(F)F)cc2C(=O)N2CC(F)C2)cc(NC(=O)c2cc(CN[C@@H](C)C3CCC3)cn(C)c2=O)n1 [Example 278], CC(C)Oc1cc(-c2ccc(C#N)cc2C(=O)N2CC(F)C2)cc(NC(=O)c2cc(CNC[C@@H]3CCCO3)cn(C)c2=O)n1 [Example 279], CC(C)Oc1cc(-c2ccc(OC(F)F)cc2C(=O)N2CC(F)C2)cc(NC(=O)c2cc(CNC[C@@H]3CCCO3)cn(C3CC3)c2=O)n1 [Example 280], COc1ccc(-c2cc(NC(=O)c3cc(CNCC(C)C)cn(C4CC4)c3=O)nc(OC(C)C)c2)c(C(=O)N2CC(F)C2)c1 [Example 281], CCOc1cc(-c2ccc(OC(F)F)cc2C(=O)N2CC(F)C2)cc(NC(=O)c2cc(CNC[C@@H]3CCCO3)cn(C)c2=O)n1 [Example 282], COc1ccc(-c2cc(NC(=O)c3cc(CNC[C@@H]4CCCO4)cn(C4CC4)c3=O)nc(OC(C)C)c2)c(C(=O)N2CC(F)C2)c1 [Example 283], COc1ccc(-c2cc(NC(=O)c3cc(CNCC(C)C)cn(C4CC4)c3=O)nc(C3CC3)c2)c(C(=O)N2CC(F)C2)c1 [Example 284], COCCNCc1cc(C(=O)Nc2cc(-c3ccc(Cl)cc3C(=O)N3CC(F)C3)cc(C3CC3)n2)c(=O)n(C2CC2)c1 [Example 285], CCOc1cc(-c2ccc(OC(F)F)cc2C(=O)N2CC(F)C2)cc(NC(=O)c2cc(CNCC(C)C)cn(C)c2=O)n1 [Example 286], Cc1ccc(-c2cc(NC(=O)c3cc(CNCC(C)C)cn(C4CC4)c3=O)nc(OC(C)C)c2)c(C(=O)N2CC(F)C2)c1 [Example 287], COc1ccc(-c2cc(NC(=O)c3cc(CNC[C@@H]4CCCO4)cn(C4CC4)c3=O)nc(C3CC3)c2)c(C(=O)N2CC(F)C2)c1 [Example 288], COc1ccc(-c2cc(NC(=O)c3cc(CNCC(C)C)cn(C4CC4)c3=O)nc(OC(C)C)c2)c(C(=O)N2CC(F)(F)C2)c1 [Example 289], CO[C@@H](C)CNCc1cc(C(=O)Nc2cc(-c3ccc(C)cc3C(=O)N3CC(F)C3)cc(OC(C)C)n2)c(=O)n(C2CC2)c1 [Example 290], COc1ccc(-c2cc(NC(=O)c3cc(CN[C@@H](C)C4CC4)cn(C4CC4)c3=O)nc(C3CC3)c2)c(C(=O)N2CC(F)C2)c1 [Example 291], COc1ccc(-c2cc(NC(=O)c3cc(CN[C@@H](C)C4CCC4)cn(C)c3=O)nc(OC(C)C)c2)c(C(=O)N2CC(F)(F)C2)c1 [Example 292], CC(C)Oc1cc(-c2ccc(OC(F)F)cc2C(=O)N2CC(F)(F)C2)cc(NC(=O)c2cc(CN[C@@H](C)C(C)C)cn(C3CC3)c2=O)n1 [Example 293], CC(C)CNCc1cc(C(=O)Nc2cc(-c3ccc(OC(F)F)cc3C(=O)N3CC(F)C3)cc(OC(C)C)n2)c(=O)n(C)c1 [Example 294], COc1ccc(-c2cc(NC(=O)c3cc(CN[C@@H](C)C4CCC4)cn(C4CC4)c3=O)nc(C3CC3)c2)c(C(=O)N2CC(F)(F)C2)c1 [Example 295], COc1ccc(-c2cc(NC(=O)c3cc(CN[C@@H](C)C4CCC4)cn(C)c3=O)nc(C3CC3)c2)c(C(=O)N2CC(F)C2)c1 [Example 296], CC(C)Oc1cc(-c2ccc(OC(F)F)cc2C(=O)N2CC(F)C2)cc(NC(=O)c2cc(CNC[C@@H]3CCCO3)cn(C)c2=O)n1 [Example 297], COCCNCc1cc(C(=O)Nc2cc(-c3ccc(Cl)cc3C(=O)N3CCC3)cc(C3CC3)n2)c(=O)n(C2CC2)c1 [Example 298], CC(C)Nc1cc(-c2ccc(OC(F)F)cc2C(=O)N2CC(F)C2)cc(NC(=O)c2cc(CNC[C@@H]3CCCO3)cn(C)c2=O)n1 [Example 299], CO[C@@H](C)CNCc1cc(C(=O)Nc2cc(-c3ccc(C(F)F)cc3C(=O)N3CC(F)(F)C3)cc(C3CC3)n2)c(=O)n(C2CC2)c1 [Example 300], COc1ccc(-c2cc(NC(=O)c3cc(CNC[C@H](C)OC)cn(C)c3=O)nc(C3CC3)c2)c(C(=O)N2CC(F)C2)c1 [Example 301], COc1ccc(-c2cc(NC(=O)c3cc(CNC[C@H](C)OC)cn(C)c3=O)nc(OC(C)C)c2)c(C(=O)N2CC(F)C2)c1 [Example 302], COCCNCc1cc(C(=O)Nc2cc(-c3ccc(Cl)cc3C(=O)N3CC(C#N)C3)cc(C3CC3)n2)c(=O)n(C2CC2)c1 [Example 303], Cc1ccc(-c2cc(NC(=O)c3cc(CNC[C@@H]4CCCO4)cn(C4CC4)c3=O)nc(C3CC3)c2)c(C(=O)N2CC(F)(F)C2)c1 [Example 304], COc1ccc(-c2cc(NC(=O)c3cc(CNC[C@H](C)OC)cn(C4CC4)c3=O)nc(OC(C)C)c2)c(C(=O)N2CC(F)(F)C2)c1 [Example 305], COCCNCc1cc(C(=O)Nc2cc(-c3ccc(Cl)cc3C(=O)N3CC4(COC4)C3)cc(C3CC3)n2)c(=O)n(C2CC2)c1 [Example 306], COCCNCc1cc(C(=O)Nc2cc(-c3ccc(Cl)cc3C(=O)N(C)C)cc(C3CC3)n2)c(=O)n(C2CC2)c1 [Example 307], COc1ccc(-c2cc(NC(=O)c3cc(CNC[C@H](C)OC)cn(C)c3=O)nc(OC(C)C)c2)c(C(=O)N2CC(F)(F)C2)c1 [Example 308], Cc1ccc(-c2cc(NC(=O)c3cc(CNC[C@@H]4CCCO4)cn(C4CC4)c3=O)nc(OC(C)C)c2)c(C(=O)N2CC(F)C2)c1 [Example 309], CC(C)CNCc1cc(C(=O)Nc2cc(-c3ccc(C(F)F)cc3C(=O)N3CC(F)C3)cc(OC(C)C)n2)c(=O)n(C2CC2)c1 [Example 310], COc1ccc(-c2cc(NC(=O)c3cc(CNC[C@@H]4CCCO4)cn(C4CC4)c3=O)nc(OC(C)C)c2)c(C(=O)N2CC(F)(F)C2)c1 [Example 311], COc1ccc(-c2cc(NC(=O)c3cc(CN[C@@H](C)C4CC4)cn(C)c3=O)nc(C3CC3)c2)c(C(=O)N2CC(F)C2)c1 [Example 312], COc1ccc(-c2cc(NC(=O)c3cc(CN[C@@H](C)[C@H](C)OC)cn(C)c3=O)nc(C3CC3)c2)c(C(=O)N2CC(F)C2)c1 [Example 313], CO[C@@H](C)CNCc1cc(C(=O)Nc2cc(-c3ccc(Cl)cc3C(=O)N3CC[C@@H]3C)cc(C3CC3)n2)c(=O)n(C2CC2)c1 [Example 314], COc1ccc(-c2cc(NC(=O)c3cc(CNCC(C)C)cn(C)c3=O)nc(C3CC3)c2)c(C(=O)N2CC(F)C2)c1 [Example 315], CCNc1cc(-c2ccc(OC(F)F)cc2C(=O)N2CC(F)C2)cc(NC(=O)c2cc(CNC[C@@H]3CCCO3)cn(C)c2=O)n1 [Example 316]
